Results on 28 compounds are retold here after patent US11084829B2, “Ubiquitin-specific-processing protease 7 (USP7) modulators and uses thereof” (RAPT THERAPEUTICS, INC., priority 2018, dated 2021).

SMILES strings stand for the structures.

The target of this assay is USP7 (Homo sapiens, UniProt Q93009). The assay can be described thus: USP7 inhibitory potency (IC50). It is filed as biochemical. The procedure:
Activity for compounds described herein is provided in Table 2, wherein potency levels are provided as follows: (Potency: USP7 IC50: A<0.01 μM; B=0.01-0.1 μM; C=>0.1 μM.

Sequence of USP7 (Q93009 whole entry): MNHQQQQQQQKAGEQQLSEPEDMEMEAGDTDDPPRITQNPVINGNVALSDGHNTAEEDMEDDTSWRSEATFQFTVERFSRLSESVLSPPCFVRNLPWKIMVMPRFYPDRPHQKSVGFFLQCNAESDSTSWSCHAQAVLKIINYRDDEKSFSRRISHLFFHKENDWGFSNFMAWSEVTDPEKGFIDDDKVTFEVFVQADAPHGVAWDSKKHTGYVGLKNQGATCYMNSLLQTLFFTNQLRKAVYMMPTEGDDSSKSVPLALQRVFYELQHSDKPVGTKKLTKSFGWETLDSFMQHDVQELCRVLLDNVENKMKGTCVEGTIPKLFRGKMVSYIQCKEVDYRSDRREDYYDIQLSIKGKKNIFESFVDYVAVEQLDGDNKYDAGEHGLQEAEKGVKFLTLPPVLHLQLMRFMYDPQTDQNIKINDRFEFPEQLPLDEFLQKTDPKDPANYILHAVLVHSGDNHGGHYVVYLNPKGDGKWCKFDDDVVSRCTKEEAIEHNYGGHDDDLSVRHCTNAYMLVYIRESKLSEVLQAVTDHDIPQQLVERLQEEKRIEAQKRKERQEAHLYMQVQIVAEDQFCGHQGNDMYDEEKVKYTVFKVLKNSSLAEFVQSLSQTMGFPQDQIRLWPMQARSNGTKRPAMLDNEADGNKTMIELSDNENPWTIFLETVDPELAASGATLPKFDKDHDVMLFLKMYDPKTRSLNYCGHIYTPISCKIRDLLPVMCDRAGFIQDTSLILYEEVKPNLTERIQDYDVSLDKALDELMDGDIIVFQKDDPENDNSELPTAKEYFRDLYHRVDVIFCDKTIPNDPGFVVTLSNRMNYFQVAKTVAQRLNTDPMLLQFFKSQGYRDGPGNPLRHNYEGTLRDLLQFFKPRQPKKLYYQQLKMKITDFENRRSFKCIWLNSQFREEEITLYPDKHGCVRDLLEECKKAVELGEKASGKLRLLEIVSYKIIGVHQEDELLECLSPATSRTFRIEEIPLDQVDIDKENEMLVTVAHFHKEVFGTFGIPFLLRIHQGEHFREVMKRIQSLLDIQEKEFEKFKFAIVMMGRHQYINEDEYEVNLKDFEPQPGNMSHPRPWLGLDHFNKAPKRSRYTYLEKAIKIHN

As usually defined, the IC50 is the concentration that gives 50% inhibition. With `Cc1cc(Cl)cc(-c2ccnc3cc(CN4C(=O)CCN(C)C4=O)sc23)c1CC1CNCC2(CCC2)O1` (stereo not shown) [Example 144, 3-((7-(2-((5-oxa-8-azaspiro[3.5]nonan-6-yl)methyl)-5-chloro-3-methylphenyl)thieno[3,2-b]pyridin-2-yl)methyl)-1-methyldihydropyrimidine-2,4(1H,3H)-dione], the IC50 is under 10 nM.

Compound `Cc1cc(Cl)cc(-c2ccnc3cc(Cn4c(=O)ccn(C)c4=O)sc23)c1CC1CNCC2(CCC2)O1` (stereo not shown) [Example 145, 3-((7-(2-((5-oxa-8-azaspiro[3.5]nonan-6-yl)methyl)-5-chloro-3-methylphenyl)thieno[3,2-b]pyridin-2-yl)methyl)-1-methylpyrimidine-2,4(1H,3H)-dione] gave an IC50 of under 10 nM. Compound `Cc1cc(Cl)cc(-c2ccnc3c(F)c(CN4C(=O)C5C(C4=O)C5(C)C)sc23)c1C[C@@H]1CNCCO1` (stereo partly drawn) [Example 146, 3-((7-(5-chloro-3-methyl-2-(((R)-morpholin-2-yl)methyl)phenyl)-3-fluorothieno[3,2-b]pyridin-2-yl)methyl)-6,6-dimethyl-3-azabicyclo[3.1.0]hexane-2,4-dione] registered a half-maximal inhibitory concentration (IC50) of 10 to 100 nM.

With `Cc1cc(Cl)cc(-c2ccnc3c(F)c(CN4C(=O)CNC4=O)sc23)c1C[C@@H]1CNCCO1` [Example 147, (R)-3-((7-(5-chloro-3-methyl-2-(morpholin-2-ylmethyl)phenyl)-3-fluorothieno[3,2-b]pyridin-2-yl)methyl)imidazolidine-2,4-dione], the half-maximal inhibitory concentration (IC50) fell in the range of 10 to 100 nM. For `Cc1cc(Cl)cc(-c2ccnc3c(F)c(CN4C(=O)CCN(C)C4=O)sc23)c1C[C@@H]1CNCCO1` [Example 148, (R)-3-((7-(5-chloro-3-methyl-2-(morpholin-2-ylmethyl)phenyl)-3-fluorothieno[3,2-b]pyridin-2-yl)methyl)-1-methyldihydropyrimidine-2,4(1H,3H)-dione] the value was 10 to 100 nM; for `Cc1cc(Cl)cc(-c2ccnc3c(F)c(CN4C(=O)CC[C@@H]4CF)sc23)c1C[C@@H]1CNCCO1` [Example 149, (R)-1-((7-(5-chloro-3-methyl-2-(((R)-morpholin-2-yl)methyl)phenyl)-3-fluorothieno[3,2-b]pyridin-2-yl)methyl)-5-(fluoromethyl)pyrrolidin-2-one], 10 to 100 nM. The value for `O=C1C2CC2C(=O)N1Cc1cc2nccc(-c3cc(Cl)cc(Cl)c3CC3CNCC4(CCC4)O3)c2s1` (stereo not shown) [Example 150, 3-((7-(2-((5-oxa-8-azaspiro[3.5]nonan-6-yl)methyl)-3,5-dichlorophenyl)thieno[3,2-b]pyridin-2-yl)methyl)-3-azabicyclo[3.1.0]hexane-2,4-dione] was under 10 nM; that for `Cc1cc(Cl)cc(-c2ncnc3cc(CN4C(=O)C5C(C4=O)C5(C)C)sc23)c1CC1CNCCO1` (stereo not shown) [Example 151, 3-((4-(5-chloro-3-methyl-2-(morpholin-2-ylmethyl)phenyl)thieno[3,2-d]pyrimidin-6-yl)methyl)-6,6-dimethyl-3-azabicyclo[3.1.0]hexane-2,4-dione] was under 10 nM; that for `Cc1cc(Cl)cc(-c2ncnc3cc(CN4C(=O)C5CC5C4=O)sc23)c1CC1CNCCO1` (stereo not shown) [Example 152, 3-((4-(5-chloro-3-methyl-2-(morpholin-2-ylmethyl)phenyl)thieno[3,2-d]pyrimidin-6-yl)methyl)-3-azabicyclo[3.1.0]hexane-2,4-dione] was under 10 nM. `Cc1cc(Cl)cc(-c2ncnc3cc(CN4C(=O)CCC4=O)sc23)c1CC1CNCCO1` (stereo not shown) [Example 153, 1-((4-(5-chloro-3-methyl-2-(morpholin-2-ylmethyl)phenyl)thieno[3,2-d]pyrimidin-6-yl)methyl)pyrrolidine-2,5-dione] yielded an IC50 of under 10 nM.

Consider `Cc1cc(Cl)cc(-c2ncnc3cc(CN4C(=O)C5CC5C4=O)sc23)c1CC1CNCC(C)(C)O1` (stereo not shown) [Example 154, 3-((4-(5-chloro-2-((6,6-dimethylmorpholin-2-yl)methyl)-3-methylphenyl)thieno[3,2-d]pyrimidin-6-yl)methyl)-3-azabicyclo[3.1.0]hexane-2,4-dione], for which the IC50 was under 10 nM. For `Cc1cc(Cl)cc(-c2ncnc3cc(CN4C(=O)C5CC5C4=O)sc23)c1C[C@@H]1CNC[C@@H](C)O1` (stereo partly drawn) [Example 155, 3-((4-(5-chloro-3-methyl-2-(((2R,6R)-6-methylmorpholin-2-yl)methyl)phenyl)thieno[3,2-d]pyrimidin-6-yl)methyl)-3-azabicyclo[3.1.0]hexane-2,4-dione] the value was under 10 nM. On to `Cc1cc(Cl)cc(-c2ncnc3cc(CN4C(=O)C5CC5C4=O)sc23)c1CC1(C)CNCCO1` (stereo not shown) [Example 156, 3-((4-(5-chloro-3-methyl-2-((2-methylmorpholin-2-yl)methyl)phenyl)thieno[3,2-d]pyrimidin-6-yl)methyl)-3-azabicyclo[3.1.0]hexane-2,4-dione], for which the 50% inhibitory concentration (IC50) lay in the range of 10 to 100 nM.

In the case of `Cc1cc(Cl)cc(-c2ncnc3cc(CN4C(=O)C5C(C4=O)C5(C)C)sc23)c1CC1(C)CNCCO1` (stereo not shown) [Example 157, 3-((4-(5-chloro-3-methyl-2-((2-methylmorpholin-2-yl)methyl)phenyl)thieno[3,2-d]pyrimidin-6-yl)methyl)-6,6-dimethyl-3-azabicyclo[3.1.0]hexane-2,4-dione], the IC50 was 10 to 100 nM. In the case of `Cc1cc(Cl)cc(-c2ncnc3cc(CN4C(=O)C5CC5C4=O)sc23)c1CC1CNC(C)(C)CO1` (stereo not shown) [Example 158, 3-((4-(5-chloro-2-((5,5-dimethylmorpholin-2-yl)methyl)-3-methylphenyl)thieno[3,2-d]pyrimidin-6-yl)methyl)-3-azabicyclo[3.1.0]hexane-2,4-dione], the half-maximal inhibitory concentration (IC50) was in the range of 10 to 100 nM. On to `Cc1cc(Cl)cc(-c2ncnc3cc(CN4C(=O)C5CC5C4=O)sc23)c1CC1OCCNC1(C)C` (stereo not shown) [Example 159, 3-((4-(5-chloro-2-((3,3-dimethylmorpholin-2-yl)methyl)-3-methylphenyl)thieno[3,2-d]pyrimidin-6-yl)methyl)-3-azabicyclo[3.1.0]hexane-2,4-dione], for which the IC50 was 10 to 100 nM. The value for `Cc1cc(Cl)cc(-c2ncnc3cc(CN4C(=O)C5CC5C4=O)sc23)c1C[C@H]1OCCN[C@@H]1C` (stereo partly drawn) [Example 160, 3-((4-(5-chloro-3-methyl-2-(((2R,3R)-3-methylmorpholin-2-yl)methyl)phenyl)thieno[3,2-d]pyrimidin-6-yl)methyl)-3-azabicyclo[3.1.0]hexane-2,4-dione] was under 10 nM; that for `COC(=O)C1CC1C(=O)NCc1cc2ncnc(-c3cc(Cl)cc(C)c3C[C@H]3OCCN[C@@H]3C)c2s1` (stereo partly drawn) [Example 161, methyl 2-(((4-(5-chloro-3-methyl-2-(((2R,3R)-3-methylmorpholin-2-yl)methyl)phenyl)thieno[3,2-d]pyrimidin-6-yl)methyl)carbamoyl)cyclopropane-1-carboxylate] was 10 to 100 nM; that for `Cc1cc(Cl)cc(-c2ncnc3cc(Cn4c(=O)ccn(C)c4=O)sc23)c1CC1CNCCO1` (stereo not shown) [Example 162, 3-((4-(5-chloro-3-methyl-2-(morpholin-2-ylmethyl)phenyl)thieno[3,2-d]pyrimidin-6-yl)methyl)-1-methylpyrimidine-2,4(1H,3H)-dione] was under 10 nM. For the compound `Cc1cc(Cl)cc(-c2ncnc3cc(CN4C(=O)CCCC4=O)sc23)c1CC1CNCCO1` (stereo not shown) [Example 163, 1-((4-(5-chloro-3-methyl-2-(morpholin-2-ylmethyl)phenyl)thieno[3,2-d]pyrimidin-6-yl)methyl)piperidine-2,6-dione], the concentration for half-maximal inhibition (IC50) was under 10 nM. With `Cc1cc(Cl)cc(-c2ncnc3cc(CN4C(=O)CCN(C)C4=O)sc23)c1CC1CNCCO1` (stereo not shown) [Example 164, 3-((4-(5-chloro-3-methyl-2-(morpholin-2-ylmethyl)phenyl)thieno[3,2-d]pyrimidin-6-yl)methyl)-1-methyldihydropyrimidine-2,4(1H,3H)-dione], the half-inhibitory concentration (IC50) was under 10 nM. The value for `Cc1cc(Cl)cc(-c2ncnc3cc(Cn4c(=O)ccn(C5CC5)c4=O)sc23)c1CC1CNCCO1` (stereo not shown) [Example 165, 3-((4-(5-chloro-3-methyl-2-(morpholin-2-ylmethyl)phenyl)thieno[3,2-d]pyrimidin-6-yl)methyl)-1-cyclopropylpyrimidine-2,4(1H,3H)-dione] was under 10 nM; that for `Cc1cc(Cl)cc(-c2ncnc3cc(Cn4c(=O)ccn(C5CCC5)c4=O)sc23)c1CC1CNCCO1` (stereo not shown) [Example 166, 3-((4-(5-chloro-3-methyl-2-(morpholin-2-ylmethyl)phenyl)thieno[3,2-d]pyrimidin-6-yl)methyl)-1-cyclobutylpyrimidine-2,4(1H,3H)-dione] was under 10 nM; that for `Cc1cc(Cl)cc(-c2ncnc3cc(Cn4c(=O)ccn(CC(F)(F)F)c4=O)sc23)c1CC1CNCCO1` (stereo not shown) [Example 167, 3-((4-(5-chloro-3-methyl-2-(morpholin-2-ylmethyl)phenyl)thieno[3,2-d]pyrimidin-6-yl)methyl)-1-(2,2,2-trifluoroethyl)pyrimidine-2,4(1H,3H)-dione] was under 10 nM. For `Cc1cc(Cl)cc(-c2ncnc3cc(Cn4c(=O)c(F)cn(C(C)C)c4=O)sc23)c1CC1CNCCO1` (stereo not shown) [Example 168, 3-((4-(5-chloro-3-methyl-2-(morpholin-2-ylmethyl)phenyl)thieno[3,2-d]pyrimidin-6-yl)methyl)-5-fluoro-1-isopropylpyrimidine-2,4(1H,3H)-dione] the value was under 10 nM; for `Cc1cc(Cl)cc(-c2ncnc3cc(CN4C(=O)COCC4=O)sc23)c1CC1CNCCO1` (stereo not shown) [Example 169, 4-((4-(5-chloro-3-methyl-2-(morpholin-2-ylmethyl)phenyl)thieno[3,2-d]pyrimidin-6-yl)methyl)morpholine-3,5-dione], under 10 nM. The compound `Cc1cc(Cl)cc(-c2ncnc3cc(CN4C(=O)C5CCC5C4=O)sc23)c1CC1CNCCO1` (stereo not shown) [Example 170, 3-((4-(5-chloro-3-methyl-2-(morpholin-2-ylmethyl)phenyl)thieno[3,2-d]pyrimidin-6-yl)methyl)-3-azabicyclo[3.2.0]heptane-2,4-dione] came in with a half-maximal inhibitory concentration (IC50) of under 10 nM.

In turn, `Cc1cc(Cl)cc(-c2ncnc3cc(CN4C(=O)CSC4=O)sc23)c1CC1CNCCO1` (stereo not shown) [Example 171, 3-((4-(5-chloro-3-methyl-2-(morpholin-2-ylmethyl)phenyl)thieno[3,2-d]pyrimidin-6-yl)methyl)thiazolidine-2,4-dione] gave an IC50 of under 10 nM.
